Assays:
[1] = test system: rat osteosarcoma (17/2.8) cells; assay: Rat osteosarcoma (ROS) cell-based alkaline phosphatase assay; conditions: 0.02-200 uM, 2 days; relative to BMP-7 standard
Protocol: BMP interactions with Type I and Type II receptors can induce alkaline phosphatase activity, a marker for osteoblast activity, in ROS cells. An assay procedure as described earlier (Maliakal, J.C., Asahina, I., Hauschka, P. V., and Sampath, T. K. (1994) Growth factors 11, 227-234) was used to determine the biological activities of TDFRP compounds. In a typical experiment, rat osteosarcoma (17/2.8) cells are plated in 96 well plates (3.0×10^4 cells/well) and incubated overnight at 37 C in 5-6% CO2 incubator. The next day, healthy and confluent cells are treated with increasing concentrations of BMP-7 standard (1-10,000 ng/ml) served as positive control or TDFRP compounds (0.02-200 uM) prepared in medium containing 1% FBS and incubated for 2 days at 37 C in 5-6% CO2 incubator. The cellular content of alkaline phosphatase activity is determined by the method of Reddi and Huggins (Reddi, A. H., and Huggins, C. B (1972) Proc. Natl. Acad. Sci. USA 69, 1601-1605). Enzyme estimations are performed in 96 well plates. Following removal of culture medium, cells are washed with pre-warmed PBS (150 ul) and incubated in 100 ul of pre-warmed 1% Triton X-100 for 30 minutes at 37 C. Plates are centrifuged for 10 minutes at full speed, and recovered samples (15 ul) are assayed for enzyme activity by adding 90 ul p-nitrophenyl phosphate (Sigma) as a substrate in 0.05 M glycine-NaOH buffer, pH 9.3 and incubating for 20 minutes at 37 C. The reaction is stopped by adding 75 ul of 0.2 N NaOH/well and absorbance at 405/490 nm is measured on a Dynatech MR 700 plate reader. Results are expressed as relative activities compared to a BMP-7 standard.

[2] = test system: HK-2 (Human Kidney-2) cells; assay: HK-2 cell culture, TNF-alpha induced cytokine production (IL-6 ELISA); type: cell-based
Protocol: The immortalized PTEC-derived HK-2 (Human Kidney-2) cells (ATCC number CRL-2190) were grown in serum-free keratinocyte medium (GIBCO number 17005-042) supplemented with epidermal growth factor (EGF: 5 ng/mL) and bovine pituitary extract (40 ug/mL) for 48 hours as described previously (Ryan et al (1994) Kidney International 45:48-57). Cells were transferred to 24-well plates at a density of 3×10^5 cells per well. After 24 hours, cells were incubated with fresh medium containing TNF-alpha (5 ng/mL) for 20 hours. Controls received medium alone. Then cells were washed twice with fresh culture medium and further incubated with culture medium alone (medium control, and TNF control wells) or TDF-1 at three different concentrations (40, 200 or 1000 ng/mL) or TDFRP compounds at three different concentrations (4, 20 or 100 uM) for sixty hours. During incubation, cells were kept in a 5% CO2 humid atmosphere at 37° C. At the end of the incubation, the media were removed and stored frozen until assayed. The concentrations of IL-6, IL-8 and sICAM-1 in culture supernatants were measured by specific ELISA (FIG. 10). […]
An 8 point standard curve is prepared using 2-fold serial dilutions in reagent diluent. […] The optical density of each well is determined immediately using a microplate reader (Dynex Revelation 4.22) set to 450 nm and a wavelength correction at 550 nm […]

For CYFDDSSNVLCKKYRS [SEQ ID NO 45], the “induction of alkaline phosphatase activity” value [1] was “did not induce alkaline phosphatase activity” and the “TNF-alpha induced inflammatory response (increase in IL-6) in proximal tubule cells” value [2] was “can alleviate this inflammatory response”.

From patent US8916686B2, “TDF-related compounds and analogs thereof” (Thrasos Innovation, Inc., priority 2004, dated 2014)
